Experimental data taken from the NIST ThermoML archive (doi:10.1016/j.fluid.2010.09.006).

Settings: 345.7 K; Crystal; visual observation

c1ccc2ccccc2c1 [naphthalene]
vapor or sublimation pressure: 3000 kPa
